Source: ChEMBL document CHEMBL1158740, “Oxylipins arabidopsides C and D from Arabidopsis thaliana” (2005)

Tested on: Lepidium sativum
Assay: Inhibition of Lepidium sativum cress root growth at 5X10'-5 mol/L after 40 hrs
Format: functional

Compound: CC/C=C\CC1C(=O)C=CC1CCCCCCCC(=O)O (cis isomer)
- inhibition at 50 µM: 50%

Compound: CC/C=C\C[C@H]1C(=O)C=C[C@H]1CCCCCCCC(=O)OC[C@H](CO[C@@H]1O[C@H](CO)[C@H](O)[C@H](O)[C@H]1O)OC(=O)CCCCC[C@@H]1C=CC(=O)[C@@H]1C/C=C\CC [ARABIDOPSIDE A]
- inhibition at 50 µM: 30%

Compound: CC/C=C\C[C@H]1C(=O)C=C[C@H]1CCCCCCCC(=O)OC[C@H](CO[C@@H]1O[C@H](CO)[C@H](O)[C@H](O)[C@H]1O)OC(=O)CCCCCCC[C@@H]1C=CC(=O)[C@@H]1C/C=C\CC [ARABIDOPSIDE B]
- inhibition at 50 µM: 30%

Compound: CC/C=C\CC1C(=O)C=CC1CCCCCCCC(=O)OCC(CO[C@@H]1O[C@H](CO[C@H]2O[C@H](CO)[C@H](O)[C@H](O)[C@H]2O)[C@H](O)[C@H](O)[C@H]1O)OC(=O)CCCCCCCC1C=CC(=O)C1C/C=C\CC (stereo not given in full) [Arabidopside D]
- inhibition at 50 µM: 30%

Compound: CC/C=C\C[C@H]1C(=O)CC[C@@H]1CC(=O)O [JASMONIC ACID]
- inhibition at 50 µM: 50%
